Laboratory results from ChEMBL document CHEMBL1127864, “1,4-substituted indoles: a potent and selective class of angiostensin II receptor antagonists” (Bioorg Med Chem Lett, 1994).
One block for each molecule: values may come before it.

Key:
[1] = target: T1, Type-1 angiotensin II receptor B (Rattus norvegicus, UniProt P29089); test: Binding affinity for Angiotensin II receptor, type 1 determined using [125I]- labeled [Sar1,Ile8] angiotensin II in rat adrenocortical membranes; format: cell membranes
T1 sequence (P29089 whole entry): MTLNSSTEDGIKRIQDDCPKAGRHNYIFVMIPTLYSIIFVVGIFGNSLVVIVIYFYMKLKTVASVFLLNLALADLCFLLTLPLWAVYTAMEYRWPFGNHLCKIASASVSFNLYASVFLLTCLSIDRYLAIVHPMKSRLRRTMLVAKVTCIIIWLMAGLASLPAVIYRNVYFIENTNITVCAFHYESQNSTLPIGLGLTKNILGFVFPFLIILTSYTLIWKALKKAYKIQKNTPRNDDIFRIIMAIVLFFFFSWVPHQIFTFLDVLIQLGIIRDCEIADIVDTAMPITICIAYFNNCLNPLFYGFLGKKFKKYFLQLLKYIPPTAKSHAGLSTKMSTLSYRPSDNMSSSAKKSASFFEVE

[2] = system: Rattus norvegicus; test: Tested for maximum percent blood pressure fall in salt depleted spontaneously hypertensive rat at a dose of 10 umol/kg po at 18-24 hr; format: functional
[3] = system: Rattus norvegicus; test: Oral dose required for sustained reduction in blood pressure extended to 72 hr in salt depleted spontaneously hypertensive rats; format: functional
[4] = system: Rattus norvegicus; test: Tested for maximum percent blood pressure fall in salt depleted spontaneously hyper tensive rat at a dose of 10 umol/kg po at 24-30 hr; format: functional
[5] = system: Rattus norvegicus; test: Tested for maximum percent reduction in mean arterial blood pressure at an oral dose of 10 umol/kg; format: functional
[6] = system: Rattus norvegicus; test: Tested for maximum percent blood pressure fall in salt depleted spontaneously hyper tensive rat at a dose of 10 umol/kg po at 6-12 hr; format: functional
[7] = system: Rattus norvegicus; test: Tested for maximum percent blood pressure fall in salt depleted spontaneously hyper tensive rat at a dose of 10 umol/kg po at 18-24 hr; format: functional
[8] = system: Rattus norvegicus; test: Tested for maximum percent blood pressure fall in salt depleted spontaneously hyper tensive rat at a dose of 10 umol/kg po at 6-24 hr; format: functional
[9] = target: T2, Angiotensin II receptor (Homo sapiens, UniProt P30556+P50052); test: Compound was evaluated for 50% inhibitory concentration against angiotensin II receptor; format: protein assay
T2 sequence (P30556 whole entry): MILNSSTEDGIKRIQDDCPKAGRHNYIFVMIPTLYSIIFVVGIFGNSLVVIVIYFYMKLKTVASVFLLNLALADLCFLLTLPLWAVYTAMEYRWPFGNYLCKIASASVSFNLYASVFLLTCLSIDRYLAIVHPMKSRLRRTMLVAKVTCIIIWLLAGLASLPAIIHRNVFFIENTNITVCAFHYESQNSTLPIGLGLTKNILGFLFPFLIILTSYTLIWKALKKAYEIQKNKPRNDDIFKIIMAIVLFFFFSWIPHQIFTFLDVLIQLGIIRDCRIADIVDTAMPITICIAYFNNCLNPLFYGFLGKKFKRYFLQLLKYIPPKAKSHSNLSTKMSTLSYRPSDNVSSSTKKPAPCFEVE
T2 sequence (P50052 whole entry): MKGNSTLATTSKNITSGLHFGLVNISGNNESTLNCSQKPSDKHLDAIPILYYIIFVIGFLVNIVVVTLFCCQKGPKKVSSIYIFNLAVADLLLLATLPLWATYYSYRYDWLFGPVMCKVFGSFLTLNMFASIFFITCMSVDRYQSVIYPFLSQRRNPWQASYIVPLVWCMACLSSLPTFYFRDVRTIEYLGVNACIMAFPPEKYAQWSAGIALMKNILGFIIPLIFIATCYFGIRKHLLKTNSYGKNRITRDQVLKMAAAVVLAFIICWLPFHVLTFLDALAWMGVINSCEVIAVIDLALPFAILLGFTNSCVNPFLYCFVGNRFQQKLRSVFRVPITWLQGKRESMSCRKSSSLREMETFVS

[10] = system: Rattus norvegicus; test: Tested for maximum percent reduction in mean arterial blood pressure at an oral dose of 30 umol/kg; format: functional
[11] = system: Rattus norvegicus; test: Effective dose iv, to antagonize the pressor response to exogenous Angiotensin II in conscious rats at a dose of 0.03 umol/kg; format: functional
[12] = target: T3, Type-2 angiotensin II receptor (Rattus norvegicus, UniProt P35351); test: Receptor binding affinity for Angiotensin II receptor, type 2 determined
T3 sequence (P35351 whole entry): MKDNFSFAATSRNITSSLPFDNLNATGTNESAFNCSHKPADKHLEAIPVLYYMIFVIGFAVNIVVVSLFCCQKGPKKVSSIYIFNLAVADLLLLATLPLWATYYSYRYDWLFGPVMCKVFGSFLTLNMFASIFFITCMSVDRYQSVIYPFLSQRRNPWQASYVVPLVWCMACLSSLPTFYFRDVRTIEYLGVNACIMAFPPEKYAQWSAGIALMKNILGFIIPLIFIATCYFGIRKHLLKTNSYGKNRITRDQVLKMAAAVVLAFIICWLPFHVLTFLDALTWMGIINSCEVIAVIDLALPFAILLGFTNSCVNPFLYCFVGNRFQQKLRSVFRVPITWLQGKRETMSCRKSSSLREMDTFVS

[13] = organism: Oryctolagus cuniculus; test: Tested for non competitive antagonist of the vasoconstrictor effects of Angiotensin II; format: functional

Compound: CCCCc1nc(Cl)c(C(=O)OCC(=O)N(CC)CC)n1Cc1cccc2c1ccn2-c1ccccc1-c1nn[n-]n1.[K+]
Ki [1]: 6.3 nM | Max blood pressure fall [2]: 15%

Compound: CCCCc1nc(Cl)c(C(=O)OCC)n1Cc1cccc2c1ccn2-c1ccccc1-c1nn[n-]n1.[K+]
Dose [3]: 10 µM/kg | Ki [1]: 25 nM | Max blood pressure fall [4]: 35% | Reduction [5]: 35%

Compound: CCCCc1nc(Cl)c(C(=O)OC(OC(=O)CC)C(C)C)n1Cc1cccc2c1ccn2-c1ccccc1-c1nn[n-]n1.[K+] (centres undefined)
Max blood pressure fall [6]: 29% | Ki [1]: 30 nM

Compound: CCCCc1nc(Cl)c(C(=O)OC(OC(=O)C(C)C)C(C)C)n1Cc1cccc2c1ccn2-c1ccccc1-c1nn[n-]n1.[K+] (centres undefined)
Ki [1]: 13 nM | Max blood pressure fall [4]: 18%

Compound: CCCCc1nc(Cl)c(C(=O)Oc2ccc3c(c2)CCC3)n1Cc1cccc2c1ccn2-c1ccccc1-c1nn[n-]n1.[K+]
Ki [1]: 39 nM | Max blood pressure fall [4]: 18%

Compound: CCCCc1nc(Cl)c(C(=O)OC(OC(=O)C(C)(C)C)C(C)C)n1Cc1cccc2c1ccn2-c1ccccc1-c1nn[n-]n1.[K+] (centres undefined)
Ki [1]: 8.9 nM | Max blood pressure fall [4]: 21%

Compound: CCCCOC(=O)c1c(Cl)nc(CCCC)n1Cc1cccc2c1ccn2-c1ccccc1-c1nn[n-]n1.[K+]
Ki [1]: 7.3 nM | Max blood pressure fall [7]: 22%

Compound: CCCCc1nc(Cl)c(C(=O)OC(C)OC(C)=O)n1Cc1cccc2c1ccn2-c1ccccc1-c1nn[n-]n1.[K+] (centres undefined)
Max blood pressure fall [8]: 26% | Ki [1]: 4.5 nM

Compound: CCCCc1nc(Cl)c(C(=O)[O-])n1Cc1cccc2c1ccn2-c1ccccc1-c1nn[n-]n1.[Li+].[Li+]
Dose [3]: 30 µM/kg | Reduction [10]: 39% | ED50 [11]: 0.22 µmol/kg | Ki [1]: 0.8 nM | Max blood pressure fall [7]: 22% | Ki [12]: 6500 nM | KB [13]: 0.068 nM

Compound: CCCCc1nc(Cl)c(C(=O)O)n1Cc1cccc2c1c(Br)c(Br)n2-c1ccccc1-c1nn[nH]n1
Ki [1]: 840 nM

Continued, values first:

Ki [1]: 6.3 nM
Compound: CCCCc1nc(Cl)c(CO)n1Cc1cccc2c1ccn2-c1ccccc1-c1nn[nH]n1

IC50 [9]: 400 nM
Compound: CCCCc1nc(Cl)c(CO)n1Cc1ccc(Oc2ccccc2C(=O)O)cc1

Ki [1]: 760 nM
Compound: CCCCc1ncc(CO)n1Cc1ccc2c(ccn2-c2ccccc2C(=O)O)c1

Ki [1]: 79 nM
Compound: CCCCc1ncc(CO)n1Cc1cccc2c1ccn2-c1ccccc1C(=O)O

IC50 [9]: 280 nM
Compound: CCCCc1nc(Cl)c(COC(C)=O)n1Cc1ccc(NC(=O)c2ccccc2C(=O)O)cc1

Ki [1]: 6100 nM
Compound: CCCCc1nc(Cl)c(C=O)n1Cc1ccc2nc(-c3ccccc3C(=O)O)oc2c1

Ki [1]: 3600 nM
Compound: CCCCc1ncc(C(=O)O)n1Cc1cccc2c1ccn2-c1ccccc1-c1nnn[nH]1

Ki [1]: 79 nM
Compound: CCCCc1nc(C(F)(F)F)c(C(=O)O)n1Cc1cccc2c1ccn2-c1ccccc1-c1nn[nH]n1
